Source: patent publication US5599807A, “Steroid derivatives” (Senju Pharmaceutical Co., Ltd., priority 1993, dated 1997)
Structures can show the parent of a compound that is named as a salt.

Test system: rat carrageenin-induced pleuritis
Test: Inhibitory effect on rat carrageenin-induced pleuritis (dye leakage into pleural cavity)
Assay type: in vivo, Wistar rats
Settings: NFLX-DX 13.4 mg/kg orally 30 min before induction, n = 7
Procedure: Inhibitory Effect of the Compound on Rat Carrageenin-induced Pleuritis The inhibitory effect of norfloxacin-dexamethasone ester hydrochloride on rat carrageenin-induced pleuritis was evaluated. [Test substance] Norfloxacin-dexamethasone ester hydrochloride (abbreviatedname: NFLX-DX) Wistar rats weighing about 200 g were used. Two groups receiving (1) distilled water (5 ml/kg) and (2) NFLX-DX (13.4 mg/kg), respectively, were provided. Under pentobarbital anesthesia, 0.1 ml of 2% λ-carrageenin was injected into the rat pleura to induce pleuritis. Five hours after the construction of pleuritis, a 5% aqueous solution of Pontamine Sky Blue (2 mg/kg) was injected intravenously, and 20 minutes later the rat was sacrificed and the pleural exudate was collected using a tube. The amount of dye leakage in the pleural cavity (μg/site) was estimated from the amount and absorbance (625 nm) of the exudate sample (ml) by the calibration curve method. The test substance was administered orally (5 ml/kg) 30 minutes before induction of inflammation.

In the case of `CCn1cc(C(=O)OCC(=O)[C@@]2(O)[C@H](C)C[C@H]3[C@@H]4CCC5=CC(=O)C=C[C@]5(C)[C@@]4(F)[C@@H](O)C[C@@]32C)c(=O)c2cc(F)c(N3CCNCC3)cc21` [NFLX-DX, 9-Fluoro-11β,17,21-trihydroxy-16α-methyl-1,4-pregnadiene-3, 20-dione-21-[1-ethyl-6-fluoro-1,4-dihydro-7-(1-piperazinyl)-4-oxo-3-quinolinecarboxylate]hydrochloride], the Dye leakage (mean ± standard error, * p < 0.01 vs control (distilled water, 74.81 ± 10.70)) is reported as 20.02 ± 3.80 μg/site and the “% Inhibition” value (inhibition of dye leakage vs control (distilled water)) is reported as 73.0%.
